Values after ≈ are worked out from the molar mass of the structure shown.
Key:
Type in all cases: functional
[1] = test system: Candida tropicalis; assay: Antifungal activity against Candida tropicalis assessed as growth inhibition by microbroth dilution method
[2] = test system: Kluyveromyces marxianus; assay: Antifungal activity against Candida kefyr assessed as growth inhibition by microbroth dilution method
[3] = test system: Cryptococcus neoformans; assay: Antifungal activity against Cryptococcus neoformans assessed as growth inhibition after 72 hrs by microbroth dilution method
[4] = test system: Candida albicans; assay: Antifungal activity against Candida albicans Y0109 assessed as growth inhibition after 24 hrs by microbroth dilution method; conditions: Y0109, 24 h
[5] = test system: Candida parapsilosis; assay: Antifungal activity against Candida parapsilosis assessed as growth inhibition by microbroth dilution method; conditions: Lodderomyces parapsilosis
[6] = test system: Candida albicans; assay: Antifungal activity against Candida albicans SC5314 assessed as growth inhibition after 24 hrs by microbroth dilution method; conditions: SC5314, 24 h
[7] = test system: Trichophyton rubrum; assay: Antifungal activity against Trichophyton rubrum assessed as growth inhibition by microbroth dilution method
[8] = test system: Aspergillus fumigatus; assay: Antifungal activity against Aspergillus fumigatus assessed as growth inhibition by microbroth dilution method
[9] = test system: Kluyveromyces marxianus; assay: Ratio of fluconazole MIC80 to compound MIC80 against Candida kefyr
[10] = test system: Candida albicans; assay: Ratio of fluconazole MIC80 to compound MIC80 against Candida albicans SC5314
[11] = test system: Trichophyton rubrum; assay: Ratio of fluconazole MIC80 to compound MIC80 against Trichophyton rubrum

| SMILES | MIC80 [1] [µg/mL] | MIC80 [2] [µg/mL] | MIC80 [3] [µg/mL] | MIC80 [4] [µg/mL] | MIC80 [5] [µg/mL] | MIC80 [6] [µg/mL] | MIC80 [7] [µg/mL] | MIC80 [8] [µg/mL] | Ratio [9] | Ratio [10] | Ratio [11] |
| --- | --- | --- | --- | --- | --- | --- | --- | --- | --- | --- | --- |
| CN(Cc1cn(Cc2ccc(F)cc2)nn1)CC(O)(Cn1cncn1)c1ccc(F)cc1F (stereo not drawn) | 0.25 | 16 | 1 (≈ 2.19 µM) | 0.5 (≈ 1.09 µM) | 0.25 | 1 (≈ 2.19 µM) | 4 | > 64 |  |  |  |
| CN(Cc1cn(Cc2cccc([N+](=O)[O-])c2)nn1)CC(O)(Cn1cncn1)c1ccc(F)cc1F (stereo not drawn) | 0.0625 | 0.0156 | 0.25 (≈ 0.516 µM) | < 0.125 | 0.0625 | 0.0156 (≈ 0.0322 µM) | 0.0625 | > 64 | 64 | 32 |  |
| CN(C/C=C/C#CC(C)(C)C)Cc1cccc2ccccc12 [TERBINAFINE] | < 0.125 | 0.0625 | 8 (≈ 27.5 µM) | 2 (≈ 6.86 µM) | < 0.125 | 16 (≈ 54.9 µM) | < 0.125 | 0.25 |  |  |  |
| Cc1ccccc1Cn1cc(CN(C)CC(O)(Cn2cncn2)c2ccc(F)cc2F)nn1 (stereo not drawn) | 0.25 | 0.25 | 0.25 (≈ 0.551 µM) | 0.25 (≈ 0.551 µM) | 0.0625 | 0.25 (≈ 0.551 µM) | 4 | > 64 |  |  |  |
| CN(Cc1cn(Cc2ccc(C#N)cc2)nn1)CC(O)(Cn1cncn1)c1ccc(F)cc1F (stereo not drawn) | 0.0625 | 0.0625 | 0.25 (≈ 0.538 µM) | < 0.0125 | 0.0156 | 0.0625 (≈ 0.135 µM) | 0.0625 | > 64 | 16 | 8 | 32 |
| OC(Cn1cncn1)(Cn1cncn1)c1ccc(F)cc1F [FLUCONAZOLE] | < 0.125 | 1 | 8 (≈ 26.1 µM) | 0.5 (≈ 1.63 µM) | < 0.125 | 0.5 (≈ 1.63 µM) | 2 | > 64 |  |  |  |
| CN(Cc1cn(Cc2ccccc2C#N)nn1)CC(O)(Cn1cncn1)c1ccc(F)cc1F (stereo not drawn) | 0.25 | 0.25 | 0.25 (≈ 0.538 µM) | < 0.125 | 0.0625 | 0.25 (≈ 0.538 µM) | 1 | > 64 |  |  |  |
| CN(Cc1cn(Cc2ccc([N+](=O)[O-])cc2)nn1)CC(O)(Cn1cncn1)c1ccc(F)cc1F (stereo not drawn) | 0.25 | 0.25 | 0.25 (≈ 0.516 µM) | 0.25 (≈ 0.516 µM) | 0.25 | 0.25 (≈ 0.516 µM) | 1 | > 64 |  |  |  |
| CN(Cc1cn(Cc2cccc(C#N)c2)nn1)CC(O)(Cn1cncn1)c1ccc(F)cc1F (stereo not drawn) | 1 | 1 | 4 (≈ 8.61 µM) | 0.5 (≈ 1.08 µM) | 0.25 | 1 (≈ 2.15 µM) | 1 | > 64 |  |  |  |
| CCC(C)n1ncn(-c2ccc(N3CCN(c4ccc(OCC5COC(Cn6cncn6)(c6ccc(Cl)cc6Cl)O5)cc4)CC3)cc2)c1=O (stereo not drawn) [ITRACONAZOLE] | < 0.0625 | 0.0625 | 0.125 (≈ 0.177 µM) | 0.0625 (≈ 0.0886 µM) | 0.0625 | < 0.0625 | 0.0625 | 2 |  |  |  |
| CN(Cc1cn(Cc2ccc(Cl)cc2)nn1)CC(O)(Cn1cncn1)c1ccc(F)cc1F (stereo not drawn) | 1 | 0.25 | 1 (≈ 2.11 µM) | < 0.125 | 0.25 | 0.25 (≈ 0.528 µM) | 4 | > 64 |  |  |  |
| Cc1ccc(Cn2cc(CN(C)CC(O)(Cn3cncn3)c3ccc(F)cc3F)nn2)cc1 (stereo not drawn) | 1 | 0.25 | 1 (≈ 2.21 µM) | < 0.125 | 0.0625 | 0.25 (≈ 0.551 µM) | 1 | > 64 |  |  |  |
| CN(Cc1cn(Cc2cccc(F)c2)nn1)CC(O)(Cn1cncn1)c1ccc(F)cc1F (stereo not drawn) | 0.5 | 64 | 2 (≈ 4.37 µM) | 0.25 (≈ 0.546 µM) | 0.5 | 0.25 (≈ 0.546 µM) | 16 | > 64 |  |  |  |
| C[C@@H](c1ncncc1F)[C@](O)(Cn1cncn1)c1ccc(F)cc1F [VORICONAZOLE] | < 0.125 | 0.0039 | < 0.125 | < 0.125 | 0.25 | 32 (≈ 91.6 µM) | < 0.125 | < 0.125 |  |  |  |
| CN(Cc1cn(Cc2ccccc2Br)nn1)CC(O)(Cn1cncn1)c1ccc(F)cc1F (stereo not drawn) | 0.25 | 0.0625 | 0.25 (≈ 0.482 µM) | 0.25 (≈ 0.482 µM) | 0.25 | 0.25 (≈ 0.482 µM) | 0.25 | > 64 |  |  |  |
| CC(=O)N1CCN(c2ccc(OCC3COC(Cn4ccnc4)(c4ccc(Cl)cc4Cl)O3)cc2)CC1 (stereo not drawn) [KETOCONAZOLE] | < 0.125 | 0.0625 | 0.5 (≈ 0.941 µM) | < 0.125 | < 0.125 | < 0.125 | < 0.125 | 0.125 |  |  |  |
| C[C@@H]1[C@H](O)[C@@H](C)/C=C/C=C/C=C/C=C/C=C/C=C/C=C/[C@H](O[C@@H]2O[C@H](C)[C@@H](O)[C@H](N)[C@@H]2O)C[C@@H]2O[C@](O)(C[C@@H](O)C[C@@H](O)[C@H](O)CC[C@@H](O)C[C@@H](O)CC(=O)O[C@H]1C)C[C@H](O)[C@H]2C(=O)O [AMPHOTERICIN B] | 0.25 | 0.25 | 4 (≈ 4.33 µM) | 4 (≈ 4.33 µM) | 1 | 8 (≈ 8.66 µM) | 0.125 | 32 |  |  |  |
| CN(Cc1cn(Cc2ccccc2[N+](=O)[O-])nn1)CC(O)(Cn1cncn1)c1ccc(F)cc1F (stereo not drawn) | 1 | 0.25 | 1 (≈ 2.06 µM) | < 0.125 | 0.25 | 0.25 (≈ 0.516 µM) | 4 | > 64 |  |  |  |
| CN(Cc1cn(Cc2ccc(Br)cc2)nn1)CC(O)(Cn1cncn1)c1ccc(F)cc1F (stereo not drawn) | 0.25 | 1 | 1 (≈ 1.93 µM) | < 0.125 | 0.25 | 0.25 (≈ 0.482 µM) | 4 | > 64 |  |  |  |
| CN(Cc1cn(Cc2cccc(Br)c2)nn1)CC(O)(Cn1cncn1)c1ccc(F)cc1F (stereo not drawn) | 0.25 | 0.25 | 0.25 (≈ 0.482 µM) | < 0.125 | 0.0625 | 0.25 (≈ 0.482 µM) | 1 | > 64 |  |  |  |
| CN(Cc1cn(Cc2ccccc2Cl)nn1)CC(O)(Cn1cncn1)c1ccc(F)cc1F (stereo not drawn) | 1 | 16 | 0.25 (≈ 0.528 µM) | 0.25 (≈ 0.528 µM) | 0.25 | 0.25 (≈ 0.528 µM) | 4 | > 64 |  |  |  |

Source: ChEMBL document CHEMBL3217508, “Synthesis and antifungal activity of the novel triazole compounds” (2013)
